According to article PMC12692147, “Surface Acoustic Waves-Based Molecular Recognition of a Collagen Receptor on Human Erythrocytes” (International Journal of Molecular Sciences, 2025):
pKd, pKi: −log10 of the molar value. Entries after “also recorded” stand apart in the source; their conditions may differ.

How the values were obtained:
[1] = molecular target: integrins in an immobilized erythrocyte ghost membrane; experiment: SAW biosensor binding of disintegrins to immobilized erythrocyte ghosts; design: species or system human; details: for pKd / kon / koff: SAW (sam-X), erythrocyte ghosts immobilized via hydrophobic interactions (CH3-SAM), running buffer PBS pH 7.4, 25 °C, 20 μL/min, 1:1 binding model, experiments in triplicate; for pKd: KD = koff/kon; for kon: slope of kobs vs c, kobs of five channels averaged; for koff: y-intercept of kobs vs c; for KD (range in words): SAW, erythrocyte ghost membrane; for KD (range in words) / phase response on erythrocyte ghosts vs. unspecific binding to GUVs: result in words; for specificity of binding to erythrocyte ghost membrane: authors' conclusion in words; for phase response on erythrocyte ghosts vs. unspecific binding to GUVs: titration with increasing concentrations of disintegrins, GUVs (bovine brain phospholipids) on a parallel channel
Description: To detect disintegrin/erythrocyte ghost binding at the molecular level, a surface acoustic wave (SAW) biosensor was used (Figure 1). The machines of SAW instruments use a detection technology resembling a highly sensitive “weight detector”. Binding processes are measured by real mass changes on the surface. Basically, the sensor is a chip, whereby the surface is excited to oscillate acoustically. Acoustic waves are generated in the piezoelectric material and propagate laterally. Response to changes in the surface-bound material and configuration is achieved through a proprietary method that produces a modified oscillation. […] The phase of the wave is shifted on mass changes. A change in amplitude indicates viscoelastic and conformational characteristics. Both effects can be differentiated and detected independently for interaction analysis.
A similar amount of erythrocyte ghosts and GUVs were successfully immobilized on (1) positively poly-L-lysin charged 2D CM-dextran, (2) EDC/NHS-activated, negatively charged 2D CM-dextran, and (3) hydrophobic–CH3-SAM. The positively charged disintegrins were repelled from all charged surfaces; therefore, immobilization via hydrophobic interactions was chosen for the main core of experiments (Figure 2). Disintegrins were diluted in PBS to achieve similar immobilization levels; in a pre-experiment, all ligands were diluted 1:3, and then dilutions were adjusted. Experiments were performed in triplicate, starting with obtustatin, then echistatin, then vice versa. The baseline was stable; at immobilization of GUVs on a chip, a 14° phase shift was detected vs. 13.1° for the erythrocyte ghosts. In this set of experiments, GUVs formed from the phospholipid fraction of the bovine brain were used as a negative control for erythrocyte ghosts.
Based on the 1:1 binding model, a KD value was calculated depending on the fit model applied for the interaction of disintegrins with integrins in the erythrocyte ghosts. Data were obtained from sensor signals after the administration of increasing concentrations of disintegrins using the monomolecular growth model. The observed rate constants (kobs) were determined from the rising phase of the sensor response curves for each analyte concentration and plotted against the corresponding disintegrin concentrations. A linear regression was performed on the dataset according to the equationkobs = kon × c + koff where kon represents the association rate constant, koff is the dissociation rate constant, and c is the concentration of the injected analyte (see Figure 3C,D).
Erythrocyte membranes were obtained by the method of Dodge, Mitchell & Hanahan, as described. To obtain erythrocyte ghosts, after the last wash the RBC pellet was mixed with nine volumes of ice-cold lysis buffer (5 mM sodium phosphate) and stirred for 15 min at 0 °C. Subsequently, the unsealed erythrocyte ghosts were pelleted by centrifugation at 37,000× g for 10 min at 0 °C. After the centrifugation the ghosts were washed with ice-cold lysis buffer until residual hemoglobin was not visible. The RBC ghosts were suspended in about 0.5 volume of PBS and were kept frozen at −30 °C until use.
Biosensor investigations were performed using a sam®-X system Surface Acoustic Wave biosensor supplied by SAW instruments (GmbH, Bonn, Germany), as described before. Gold-coated sensors were incubated in a solution of 11-mercaptoundecanoic acid (10 mM) in ethanol abs. forming a self-assembled monolayer by binding of the sulfur headgroups to the gold surface ([…]). The carboxyl groups were activated with 200 mM N-ethyl-N-(dimethylaminopropyl)-carbodiimide (EDC) and 50 mM N-hydroxysuccinimide (NHS) to bind disintegrins and/or vesicles. An excess of activated unreacted NHS esters was blocked by 1 M ethanolamine (pH 8.5). Running buffer was PBS containing 2.7 mM potassium chloride and 137 mM sodium chloride (pH 7.4 at 25 °C); flow rate was 40/20 μL/min. […]

[2] = tested on: α1β1 integrin; details: cited from earlier work
Source text: (§1) Integrin-mediated binding is important for the metastatic dissemination of different types of cancer cells. […] Obtustatin is one of the shortest disintegrins yet described, containing 41 amino acids. It has a similar pattern of cysteines to the other disintegrin echistatin but with a KTS motif rather than a classic RGD in its active site. […] Echistatin is a 49-amino-acid peptide belonging to the disintegrins family derived from Echis carinatus snake venom. […] Obtustatin, comprising only 41 amino acid residues, is one of the shortest disintegrins characterized to date. It was purified from the venom of the Subcaucasian subspecies of the Levantine viper—Macrovipera ...

[3] = tested on: αVβ3 integrin; details: cited from earlier work
Source text: as §1

[4] = tested on: platelet aggregation and cellular adhesion; details: background statement; ref [14] (preceding sentence); cited from earlier work
Source text: Disintegrins are the large family of anti-adhesive proteins found in viper venom, whose structural and functional complexity contrasts with their small molecular size. Echistatin is a 49-amino-acid peptide belonging to the disintegrins family derived from Echis carinatus snake venom. […] Obtustatin, comprising only 41 amino acid residues, is one of the shortest disintegrins characterized to date. It was purified from the venom of the Subcaucasian subspecies of the Levantine viper—Macrovipera ...

[5] = molecular target: αVβ3 integrin (Homo sapiens) (UniProt P06756); details: cited from earlier work
Chain of UniProt P06756 (P06756 31-1048, chain 1 of 2): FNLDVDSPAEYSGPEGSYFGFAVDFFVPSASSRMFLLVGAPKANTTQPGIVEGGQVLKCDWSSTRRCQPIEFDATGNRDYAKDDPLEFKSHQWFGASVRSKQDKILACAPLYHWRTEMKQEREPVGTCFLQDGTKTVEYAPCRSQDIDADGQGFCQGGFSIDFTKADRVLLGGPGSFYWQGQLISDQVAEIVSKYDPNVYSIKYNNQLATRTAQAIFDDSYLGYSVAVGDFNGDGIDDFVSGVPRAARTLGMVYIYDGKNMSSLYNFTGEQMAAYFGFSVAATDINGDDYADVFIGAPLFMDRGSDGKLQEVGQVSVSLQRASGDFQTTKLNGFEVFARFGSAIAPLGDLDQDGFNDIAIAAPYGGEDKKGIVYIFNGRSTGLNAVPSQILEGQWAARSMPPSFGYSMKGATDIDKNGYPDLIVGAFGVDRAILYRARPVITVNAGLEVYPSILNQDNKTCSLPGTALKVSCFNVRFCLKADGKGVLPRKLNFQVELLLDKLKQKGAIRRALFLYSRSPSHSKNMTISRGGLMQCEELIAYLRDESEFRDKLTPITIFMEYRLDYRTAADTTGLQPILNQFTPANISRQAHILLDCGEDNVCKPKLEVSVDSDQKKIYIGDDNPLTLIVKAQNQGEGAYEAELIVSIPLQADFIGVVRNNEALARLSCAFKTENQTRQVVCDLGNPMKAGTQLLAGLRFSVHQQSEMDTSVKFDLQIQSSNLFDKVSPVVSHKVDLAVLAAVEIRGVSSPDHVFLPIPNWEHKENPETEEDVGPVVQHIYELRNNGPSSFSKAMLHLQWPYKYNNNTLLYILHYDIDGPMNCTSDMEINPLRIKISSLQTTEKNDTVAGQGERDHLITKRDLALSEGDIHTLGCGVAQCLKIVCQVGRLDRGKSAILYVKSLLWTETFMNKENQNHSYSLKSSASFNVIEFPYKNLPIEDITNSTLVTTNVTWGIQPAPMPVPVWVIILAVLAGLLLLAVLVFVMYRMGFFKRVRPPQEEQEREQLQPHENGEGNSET
Chain of UniProt P06756 (P05106 27-788, chain 2 of 2, further chain): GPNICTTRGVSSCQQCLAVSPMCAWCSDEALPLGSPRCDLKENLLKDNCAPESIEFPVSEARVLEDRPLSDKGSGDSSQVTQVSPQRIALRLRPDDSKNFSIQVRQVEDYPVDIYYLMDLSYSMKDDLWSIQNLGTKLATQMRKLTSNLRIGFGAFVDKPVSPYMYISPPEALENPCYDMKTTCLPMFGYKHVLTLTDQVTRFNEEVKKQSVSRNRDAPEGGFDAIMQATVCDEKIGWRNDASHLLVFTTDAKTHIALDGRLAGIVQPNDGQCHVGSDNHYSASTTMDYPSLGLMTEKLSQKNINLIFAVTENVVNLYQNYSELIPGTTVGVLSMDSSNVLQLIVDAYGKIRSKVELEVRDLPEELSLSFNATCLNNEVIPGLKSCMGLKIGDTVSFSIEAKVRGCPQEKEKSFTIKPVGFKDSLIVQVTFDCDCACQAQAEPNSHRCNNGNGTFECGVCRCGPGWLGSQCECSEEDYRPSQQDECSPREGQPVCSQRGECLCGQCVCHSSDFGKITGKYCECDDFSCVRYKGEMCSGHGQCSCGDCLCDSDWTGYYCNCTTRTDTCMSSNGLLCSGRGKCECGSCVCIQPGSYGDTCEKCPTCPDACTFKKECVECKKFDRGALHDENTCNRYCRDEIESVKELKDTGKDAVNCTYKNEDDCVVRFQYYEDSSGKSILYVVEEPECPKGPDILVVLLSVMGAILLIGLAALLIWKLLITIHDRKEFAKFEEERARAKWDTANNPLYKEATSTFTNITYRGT

[6] = stated in abstract without reference

Substance	pKd [1]	kon [1]	koff [1]	KD (range in words) [1]	specificity of binding to erythrocyte ghost membrane [1]	phase response on erythrocyte ghosts vs. unspecific binding to GUVs [1]	α1β1 integrin blockade, selectivity ([2]; ref [17],[18],[19])	α1β1 integrin inhibition [2, 6]	αVβ3 integrin antagonism ([3]; ref [20],[21],[22])	αvβ3 integrin inhibition [3, 6]	inhibition of platelet aggregation and cellular adhesion [4]	pKi [5]
CTTGPCCRQCKLKPAGTTCW-----KTS--LTSHYCTGKSCDCPLYPG (disulfide) [Obtustatin]	6.63	(5.34 ± 0.9) × 10^3 M^−1 s^−1	(1.238 ± 0.8) × 10^−3 s^−1	mid-nanomolar range	specific molecular recognition for both disintegrins, but the higher response for obtustatin; also recorded: specific binding of the obtustatin with the erythrocyte ghost membrane in the 1:1 binding mode	the highest difference is observable	block α1β1 integrin in a highly selective manner	potent, irreversible, and selective inhibitors				
ECESGPCCRNCKFLKEGTICKR—ARGD-DMDDYCNGKTCDCPRNPHKGPAT (disulfide) [Echistatin]	5.68	(4.22 ± 0.002) × 10^2 M^−1 s^−1	(8.85 ± 0.03) × 10^−4 s^−1	low micromolar range	could be evidence of some unspecific binding	remarkably lower			potent irreversible αVβ3 integrin antagonist	potent, irreversible, and selective inhibitors	highly effective inhibitor of platelet aggregation and cellular adhesion	
echistatin (from UniProt P17347)												9.57
